# Values quoted from earlier work as cited in patent US10155050B2, “Cross-linked star-shaped self-assembled polypeptides and its use as carriers in biomedical applications” (CENTRO DE INVESTIGACION PRINCIPE FELIPE, priority 2015, dated 2018).
# Settings: FVB mice
substance,measurement,value
inulin,renal clearance value,around 20 mL/h
